Laboratory results from patent US20190262355A1, “COMBINATION OF A BRD4 INHIBITOR AND AN ANTIFOLATE FOR THE THERAPY OF CANCER” (CeMM-Forschungszentrum für Molekulare Medizin GmbH, priority 2016, published 2019).
One block for each compound: values may come before it. No end group written: not given here.

Columns and labels:
[1] = target: T1, chromatin-associated MTHFD1 (Homo sapiens, UniProt P11586); test: Western blot of chromatin associated proteins: MTHFD1; assay type: cell-based; conditions: HAP1 cells, two-hour treatment, 0.5 μM (FIG. 2C)
T1 construct: endogenous in cells; host or cells: HAP1
T1 sequence (P11586 1-935): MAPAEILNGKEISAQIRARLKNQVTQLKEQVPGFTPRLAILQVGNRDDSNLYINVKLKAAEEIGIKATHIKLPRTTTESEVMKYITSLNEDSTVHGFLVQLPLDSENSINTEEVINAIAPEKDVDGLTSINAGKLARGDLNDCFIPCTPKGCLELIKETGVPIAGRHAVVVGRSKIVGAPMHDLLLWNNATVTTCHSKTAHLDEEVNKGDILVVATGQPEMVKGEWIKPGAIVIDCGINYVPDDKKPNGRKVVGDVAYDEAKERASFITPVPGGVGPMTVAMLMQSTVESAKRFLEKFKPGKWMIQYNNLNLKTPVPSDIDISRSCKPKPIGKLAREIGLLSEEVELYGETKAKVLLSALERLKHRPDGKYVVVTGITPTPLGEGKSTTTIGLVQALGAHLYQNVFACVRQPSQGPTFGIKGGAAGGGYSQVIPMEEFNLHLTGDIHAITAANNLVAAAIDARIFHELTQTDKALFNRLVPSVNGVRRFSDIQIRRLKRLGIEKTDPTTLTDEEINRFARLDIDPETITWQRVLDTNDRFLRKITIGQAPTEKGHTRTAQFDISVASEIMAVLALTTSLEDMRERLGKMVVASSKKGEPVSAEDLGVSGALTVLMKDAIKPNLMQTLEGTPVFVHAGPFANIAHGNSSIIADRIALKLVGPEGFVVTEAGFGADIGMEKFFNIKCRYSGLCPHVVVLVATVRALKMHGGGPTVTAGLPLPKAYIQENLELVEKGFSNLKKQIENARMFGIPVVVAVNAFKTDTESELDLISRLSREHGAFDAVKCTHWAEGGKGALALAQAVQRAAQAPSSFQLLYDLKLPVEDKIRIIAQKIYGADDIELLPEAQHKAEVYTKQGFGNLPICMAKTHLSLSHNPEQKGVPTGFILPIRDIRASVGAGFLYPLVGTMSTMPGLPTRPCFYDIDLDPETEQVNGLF
Experimental: (§1) For Western Blot, proteins were separated on polyacrylamide gels with SDS running buffer (50 mM Tris, 380 mM Glycine, 7 mM SDS) and transferred to nitrocellulose blotting membranes. All membranes were blocked with blocking buffer (5% (m/v) milk powder (BioRad) in TBST (Tris-Buffered Saline with Tween: 50 mM Tris (tris (hydroxymethyl)aminomethane), 150 mM NaCl, 0.05% (v/v) Tween 20, adjusted to pH 7.6). Proteins were probed with antibodies against BRD4 (ab128874, 1:1000, Abcam), Actin (ab16039, 1:1000, Abcam), MTHFD1 (ab70203, Abcam; H120, Santa Cruz; A8, Santa Cruz; all used at 1:1000), GFP (G10362, 1:1000, Life Technology), RCC1 (C-20, 1:1000, Santa Cruz), β-Tubulin (T-4026, 1:1000, Sigma), SHMT1 (ab186130, 1:1000, Abcam) and H2B (ab156197, 1:1000, Abcam) and detected by HRP (horseradish peroxidase) conjugated donkey anti-rabbit IgG antibody (ab16284, 1:5000, Abcam) or donkey anti-mouse IgG antibody (Pierce) and visualized with the Pierce ECL Western Blotting substrate (Amersham), according to the provided protocol.
Cell fractionation and chromatin enrichment was carried out as previously described^29 with some adaptations. […]

[2] = test system: MTHFD1 nuclear localization; test: Nuclear vs cytosol fractionation Western blot in HAP1 cells; assay type: cell-based, human; conditions: 72 hours (FIG. 9D)
Experimental: as §1

[3] = test system: MTHFD1 binding to genomic loci; test: ChIP-Seq of MTHFD1 genomic binding in HAP1 cells; assay type: cell-based, human; conditions: 2 h treatment (1 μM per FIG. 16A)
Experimental: Three 15 cm dishes with cells at 70-80% of confluency were used for one ChIP experiment. Briefly, cells were cross-linked with 1% formaldehyde for 10 minutes at room temperature, and then quenched with 125 mM glycine for 5 minutes at room temperature. Then, cells were washed with cold PBS, collected in 15 ml tubes and washed again with cold PBS by centrifugation at 1200 rpm for 5 minutes at 4° C. and finally snap frozen.
ChIP was performed as described^18 by using BRD4 (Bethyl Laboratories, Inc.) and MTHFD1 (sc-271413, Santa Cruz) antibodies. In brief, crosslinked cell lysates were sonicated in order to shred the chromatin into 200-500 bp fragments. Fragmented chromatin was incubated overnight at 4° C. with antibodies, followed by 2 hours at 4° C. with pre-blocked Dynabeads Protein G (ThermoFisher Scientific). […]
Reads containing adapters were trimmed using Skewer^19 and aligned to the hg19/GRCh37 assembly of the Human genome using Bowtie2^20 with the “—very-sensitive” parameter and duplicate reads were marked and removed with sambamba. Library quality was assessed with the phantomPeakQualtools scripts^21. For visualization exclusively, the inventors generated genome browser tracks with the genomeCoverageBed command in BEDTools^22 and normalized such that each value represents the read count per base pair per million mapped and filtered reads. […]

BRD4-MTHFD1 interaction = target: T2, BRD4-MTHFD1 interaction (Homo sapiens, UniProt O60885+P11586); test: MTHFD1 pull-down on HAP1 whole cell lysates (BRD4-MTHFD1 interaction); assay type: binding; conditions: HAP1 whole cell lysates treated with 50 μM (FIG. 9I)
T2 construct: MTHFD1 pull-down performed on HAP1 whole cell lysates treated with 50 μM (S)-JQ1, MTX; endogenous in cells; host or cells: HAP1
Experimental: For immunoprecipitation, 1 mg of protein extract was incubated overnight at 4° C. with 10 μl of Dynabeads (either A or G, Life technology) preincubated for 2 hours at 4° C. with 1 μg of BRD4 (ab128874, Abcam), MTHFD1 (A8, Santa Cruz) or GFP (G10362, Life Technology) antibodies.

GST-BRD4 (full length) = target: T3, GST-BRD4 (full length) (Homo sapiens, UniProt O60885); test: AlphaLISA assay of acetylated MTHFD1 peptides with GST-BRD4; assay type: binding
T3 construct: AlphaLISA assay performed with the indicated MTHFD1 acetylated peptides and GST-BRD4 (full length); made in house
Experimental: The Amplified Luminescent Proximity Homogenous Assay (AlphaLISA©), a homogenous and chemiluminescence-based method, was performed to explore the direct interaction of BRD4 and acetylated substrates.
Briefly, in this assay, the biotinylated MTHFD1 acetylated peptides (possible substrates) are captured by streptavidin-coupled donor beads. GST-tagged BRD4 (produced as previously described^15) is recognized and bound by an anti-GST antibody conjugated with an acceptor bead. In case of interaction between BRD4 and one acetylated peptide, the proximity between the partners (<200 nm) allows that the excitation (680 nm wavelength) of a donor bead induces the release of a singlet oxygen molecule (^1O2) that then triggers a cascade of energy transfer in the acceptor bead, resulting in a sharp peak of light emission at 615 nm.
GST-BRD4 and each of the MTHFD1 acetylated peptides were incubated together. After 30 minutes, GSH (Glutathione) Acceptor beads (PerkinElmer) were added and after another incubation time of 30 minutes, Streptavidin-conjugated donor beads (PerkinElmer) were added. The signal (alpha counts) was read by the EnVision 2104 Multilabel Reader (PerkinElmer).

WT-KBM7 cells = test: Cell cycle profile by PI staining and FACS (diploidization); assay type: cell-based, human; conditions: treated overnight during one week, PI incorporation and FACS (FIG. 6D)
Experimental: For cell cycle analysis, 1 million cells were fixed with 70% ethanol for 24 hours, washed with PBS/1% BSA/0.1% Tween and incubated with RNase for 30 minutes. Nuclei were stained with 5 μg/ml PI (propidium iodide, Sigma) for 10 minutes prior to FACS analysis (BD FACSCalibur Flow Cytometer).
The prerequisite for effective GT genetic screens is a haploid system where monoallelic disruptive GT integration results in gene knock-out (KO). Therefore, KBM7 cells, a chronic myeloid leukemia cell line with near haploid karyotype, were chosen for the generation of the BRD4 reporter cell lines as previously described^15. […] Propidium iodide (PI) incorporation and FACS analysis were used to assay the cell cycle profile of several REDS clones in order to select a haploid clone suitable for GT-based genetic screen. […] REDS1 was the only clonal cell line with haploid karyotype (see FIG. 6B), also confirmed by metaphase spreads (see FIG. 6C).

Compound: Cc1sc2c(c1C)C(c1ccc(Cl)cc1)=N[C@@H](CC(=O)NCCCCNC(=O)COc1cccc3c1C(=O)N(C1CCC(=O)NC1=O)C3=O)c1nnc(C)n1-2 (some centres unmarked) [dBET1]
MTHFD1 on chromatin after degronimid treatment [1]: MTHFD1 was lost from chromatin

Compound: ginkgolic acid
redistribution of MTHFD1 between nucleus and cytoplasm [2]: did not cause a redistribution of MTHFD1 between the nucleus and cytoplasm

MTHFD1 on chromatin after degronimid treatment [1]: MTHFD1 was lost from chromatin
Compound: Cc1sc2c(c1C)C(c1ccc(Cl)cc1)=N[C@@H](CC(=O)NCCCCCCCCNC(=O)COc1cccc3c1C(=O)N(C1CCC(=O)NC1=O)C3=O)c1nnc(C)n1-2 (some centres unmarked) [dBET6]
MTHFD1 binding to distinct genomic loci [3]: binding was lost

increase of the alphaLISA signal (GST-BRD4 (full length); peptide used at high concentration (FIG. 9F)): ~5 fold | alphaLISA peptide titration with GST-BRD4 (GST-BRD4 (full length); titration (FIG. 9G)): dose-responsive manner
Compound: MTHFD1(47-66)K56ac: synthetic biotinylated MTHFD1 peptide, residues 47-66, acetylated at lysine 56 (DDSNLYINVK(Ac)LKAAEEIGIK; also: biotinylated, site not given here; UniProt P11586 47-66, looked up, fragment)
effect on BRD4-MTHFD1 interaction in MTHFD1 pull-down (BRD4-MTHFD1 interaction): not able to inhibit the BRD4-MTHFD1 interaction

Compound: Cc1sc2c(c1C)C(c1ccc(Cl)cc1)=N[C@H](CC(=O)OC(C)(C)C)c1nnc(C)n1-2 [(R)-JQ1]
diploidization of WT-KBM7 (cell cycle profile) (WT-KBM7 cells): Only (S)-JQ1 treatment induced WT-KBM7 diploidization
